US12319655B2, “RAF kinase inhibitors and methods of use thereof” (Deciphera Pharmaceuticals, LLC, priority 2021, dated 2025)

Legend:
Miapaca-2 cells = test: MiaPaca-2 Combination Cell proliferation Assay (1) with cobimetinib; assay type: cell-based; details: MiaPaca-2 cell proliferation, read-out: MiaPaca-2 Combo (1) IC50
Protocol: MiaPaca-2 Combination Cell proliferation Assay (1)
Miapaca-2 cells (catalog #CRL-1420) are obtained from the American Type Culture Collect (ATCC, Manassas, VA). Briefly, cells were grown in DMEM supplemented with 10% characterized fetal bovine serum (Invitrogen, Carlsbad, CA), 2.5% New Zealand sourced horse serum and 1% Penicillin/Streptomycin/L-Glutamine at 37° C., 5% CO2, and 95% humidity. Cells are expanded until reaching 70-95% confluency at which point they are subcultured or harvested for assay use. A serial dilution of test compound was dispensed into multiple 96-well black clear bottom plates in triplicate. A serial dilution of complete growth medium containing cobimetinib was prepared at twice the final concentration and 100 μL was dispensed across the test compound titration in triplicate. Three thousand cells are added per well in 100 μL complete growth medium in each 96-well plate. Plates are incubated for 67-72 hours at 37° C., 5% CO2, and 95% humidity. At the end of the incubation, 40 μL of a 440 μM solution of resazurin (Sigma, St. Louis, MO) in PBS is added to each well of the plate and plates are incubated for an additional 5-7 hours at 37° C., 5% CO2, and 95% humidity. Plates are read on a Synergy2 or equivalent reader (Biotek, Winooski VT) using an excitation of 540 nm and an emission of 600 nm. Drug synergy was assessed via BLISS analysis in the Combenefit software (Cancer Research UK Cambridge Institute, Cambridge, UK). Data is analyzed using Prism software (Graphpad, San Diego, CA) to calculate IC50 values. Shifts in test compound IC50 values are reported from top-constrained combination therapy curves.

WM3629 cells = test: WM3629 Cell Proliferation Assay (1); assay type: cell-based
Protocol: WM3629 Cell Proliferation Assay (1)
WM3629 cells (#WM3629-01-0001) are obtained from Rockland Immunochemicals Inc (Gilbertsville, PA). Briefly, cells were grown in MCDB 153 medium (Sigma, #M7403, St. Louis, MO) supplemented with 20% Leibovitz's L-15 (ThermoFisher #11415-064, Waltham, MA), 2% heat inactivated fetal bovine serum (ThermoFisher, #A3840001, Waltham, MA), 5 μg/mL Insulin (Bovine Pancreas) (Sigma, #10516, St. Louis, MO), 1.68 mM Calcium Chloride (Sigma, #C-34006, St. Louis, MO) and 1% Penicillin/Streptomycin/L-Glutamine (ThermoFisher #10378016, Waltham, MA) at 37° C., 5% CO2, and 95% humidity. Cells are expanded until reaching 70-95% confluency at which point they are subcultured or harvested for assay use. A serial dilution of test compound is dispensed into a 96-well black clear bottom plate in triplicate. Four thousand five hundred cells are added per well in 200 μL complete growth medium in the 96-well plate. Plates are incubated for 67-72 hours at 37° C., 5% CO2, and 95% humidity. At the end of the incubation, 40 μL of a 440 μM solution of resazurin (Sigma, #199303, St. Louis, MO) in PBS is added to each well of the plate and plates are incubated for an additional 6-7 hours at 37° C., 5% CO2, and 95% humidity. Plates are read on a Synergy2 or equivalent reader (Biotek, Winooski VT) using an excitation of 540 nm and an emission of 600 nm. Data is analyzed using Prism software (GraphPad, San Diego, CA) to calculate IC50 values.

Row | Compound | IC50 (Miapaca-2 cells) [nM] | IC50 (WM3629 cells) [nM]
1 | CCOc1cc(-c2cc(NC(=O)c3ccnc(C(F)(F)F)c3)ccc2C)cc(-c2ccnc(NC(=O)C3CC3)c2)n1 [Example 12] | 100 to 500 | –
2 | CC(=O)Nc1cc(-c2cc(-c3cc(NC(=O)c4ccnc(C(F)(F)F)c4)ccc3C)cc(N3CCOCC3)n2)ccn1 [Example 15] | ≤ 100 | –
3 | CC(=O)Nc1cc(-c2cc(-c3cc(NC(=O)c4ccnc(C(C)(C)C#N)c4)ccc3C)ccn2)ccn1 [Example 19] | ≤ 100 | –
4 | Cc1ccc(NC(=O)c2ccnc(C(C)(C)F)c2)cc1-c1ccnc(-c2ccnc(NC(=O)C3CC3)c2)n1 [Example 186] | – | ≤ 100
5 | Cc1ccc(NC(=O)c2ccnc(C3(C#N)CC3)c2)cc1-c1nccc(-c2ccnc(NC(=O)C3CC3)c2)n1 [Example 187] | – | ≤ 100
6 | Cc1ccc(NC(=O)c2ccnc(C(F)F)c2)cc1-c1ccnc(-c2ccnc(NC(=O)C3CC3)c2)n1 [Example 189] | 100 to 500 | –
7 | Cc1ncc(NC(=O)c2ccnc(C(C)(C)C#N)c2)cc1-c1ccnc(-c2ccnc(NC(=O)C3CC3)c2)n1 [Example 193] | ≤ 100 | –
8 | Cc1ccc(NC(=O)c2ccnc(C(C)(C)C#N)c2)cc1-c1cccc(-c2cc(NC(=O)C3(C)CC3)ncn2)c1 [Example 197] | 100 to 500 | –
9 | Cc1cc(-c2cc(NC(=O)C3CC3)ncn2)cc(-c2cc(NC(=O)c3ccnc(C(C)(C)C#N)c3)ccc2C)c1 [Example 212] | – | ≤ 100
10 | CNC(=O)c1cc(-c2cc(-c3cc(NC(=O)c4ccnc(C(C)(C)F)c4)ccc3C)ccn2)ccn1 [Example 214] | 100 to 500 | ≤ 100
11 | Cc1ncc(NC(=O)c2ccnc(C(C)(C)C#N)c2)cc1-c1cccc(-c2ccnc(NC(=O)C3CC3)c2)c1 [Example 222] | ≤ 100 | ≤ 100
12 | Cc1ccc(NC(=O)c2ccnc(C(C)(C)C#N)c2)cc1-c1cccc(-c2ccnc(NC(=O)C3CC3)c2)c1 [Example 223] | ≤ 100 | –
13 | Cc1ccc(NC(=O)c2ccnc(C(C)(C)C#N)c2)cc1-c1cncc(-c2cc(NC(=O)C3CC3)ncn2)c1 [Example 224] | ≤ 100 | ≤ 100
14 | COC(=O)Nc1cc(-c2cccc(-c3cc(NC(=O)c4ccnc(C(C)(C)C#N)c4)cnc3C)c2)ncn1 [Example 225] | ≤ 100 | –
15 | Cc1ccc(NC(=O)c2ccnc(C3CC3)c2)cc1-c1ccnc(-c2ccnc(NC(=O)C3CC3)c2)n1 [Example 229] | – | ≤ 100
16 | Cc1ccc(NC(=O)c2ccnc(C(C)(C)C#N)c2)cc1-c1cnnc(-c2ccnc(NC(=O)C3CC3)c2)c1 [Example 230] | ≤ 100 | –
17 | CNC(=O)c1cc(-c2cncc(-c3cc(NC(=O)c4ccnc(C(C)(C)C#N)c4)ccc3C)c2)ncn1 [Example 235] | 100 to 500 | ≤ 100
18 | Cc1ccc(NC(=O)c2ccnc(C(C)(C)C#N)c2)cc1-c1ccnc(-c2ccnc(NC(=O)C3(C#N)CC3)c2)n1 [Example 241] | 100 to 500 | –
19 | Cc1ccc(NC(=O)c2ccnc(C(C)(C)C#N)c2)cc1-c1cc(-c2ccnc(NC(=O)C3CC3)c2)cnn1 [Example 245] | ≤ 100 | ≤ 100
20 | Cc1ncc(NC(=O)c2ccnc(C(C)(C)F)c2)cc1-c1cccc(-c2cc(NC(=O)C3CC3)ncn2)c1 [Example 249] | ≤ 100 | ≤ 100
21 | Cc1ncc(NC(=O)c2ccnc(C(C)(C)C#N)c2)cc1-c1ccnc(-c2ccnc(NC(=O)C3CC3)c2)c1 [Example 251] | ≤ 100 | –
22 | Cc1ccc(NC(=O)c2ccnc(C(C)(C)C#N)c2)cc1-c1ccnc(-c2ccnc(NC(=O)C3CC3)c2)n1 [Example 257] | ≤ 100 | –
23 | CNC(=O)c1cc(-c2cc(-c3cc(NC(=O)c4ccnc(C(C)(C)OC)c4)ccc3C)ccn2)ccn1 [Example 264] | – | ≤ 100
24 | CNC(=O)c1cc(-c2cc(-c3cc(NC(=O)c4ccnc(C5(C#N)CC5)c4)ccc3C)ccn2)ccn1 [Example 265] | 100 to 500 | –
25 | COC(C)(C)c1cc(C(=O)Nc2cnc(C)c(-c3cccc(-c4cc(NC(=O)C5CC5)ncn4)c3)c2)ccn1 [Example 274] | ≤ 100 | ≤ 100
26 | Cc1ncc(NC(=O)c2cnn(C(C)(C)C)c2)cc1-c1cccc(-c2cc(NC(=O)C3CC3)ncn2)c1 [Example 279] | ≤ 100 | –
